Data from BigSolDB 2.1.

N=C(N)NC(N)=S
solubility (mole fraction)
Conditions | 283.15 K | 288.15 K | 293.15 K | 298.15 K | 303.15 K | 308.15 K | 313.15 K | 318.15 K | 323.15 K
in 1,4-dioxane | – | 0.00901 | 0.0107 | 0.0127 | 0.0151 | 0.0178 | 0.0208 | 0.0241 | 0.028
in NMP | 0.0139 | 0.0166 | 0.0195 | 0.0236 | 0.0281 | 0.0329 | 0.0389 | 0.0455 | 0.0532
in acetone | 0.0103 | 0.0123 | 0.0145 | 0.0175 | 0.0203 | 0.0241 | 0.028 | 0.0324 | 0.0371
in acetonitrile | 0.00365 | 0.00428 | 0.00504 | 0.00591 | 0.00688 | 0.008 | 0.00927 | 0.0105 | 0.0121
in cyclohexane | 3.6e-05 | 4.3e-05 | 5e-05 | 6e-05 | 7e-05 | 8.4e-05 | 9.9e-05 | 0.000118 | 0.00014
in ethanol | 0.0045 | 0.00521 | 0.00605 | 0.00706 | 0.00817 | 0.00933 | 0.0106 | 0.0122 | 0.014
in ethyl acetate | 0.00196 | 0.00245 | 0.00314 | 0.00391 | 0.00471 | 0.00569 | 0.00679 | 0.00797 | 0.0094
in isopropanol | 0.00124 | 0.00167 | 0.00223 | 0.00286 | 0.00363 | 0.00456 | 0.00559 | 0.0069 | 0.00854
in methanol | 0.00558 | 0.00635 | 0.00744 | 0.0089 | 0.0105 | 0.0123 | 0.0143 | 0.0165 | 0.0192
in n-butanol | 0.000477 | 0.000749 | 0.00111 | 0.00162 | 0.00226 | 0.00314 | 0.00432 | 0.00575 | 0.0076
in n-propanol | 0.00271 | 0.00326 | 0.00393 | 0.00468 | 0.00564 | 0.00676 | 0.00782 | 0.00901 | 0.0104
in toluene | 0.000126 | 0.000137 | 0.000149 | 0.00016 | 0.000174 | 0.000189 | 0.000206 | 0.000223 | 0.000243
